US20230263822A1, “MODULATION OF FACTOR 11 EXPRESSION” (Ionis Pharmaceuticals, Inc., priority 2008, published 2023)
Strand notation (5' to 3'): a small letter for the sugar, then the base; units joined by * are phosphorothioate-linked, units joined directly phosphodiester-linked; [ ] holds rarer units or linkages, { } end groups; capitals alone tell only the bases. e = 2'-O-(2-methoxyethyl) (MOE); [5mC] = 5-methylcytosine; d = 2'-deoxy (DNA)

Tests used:
human Factor 11 mRNA = assay: Dose-dependent inhibition of human Factor 11 in HepG2 cells, electroporation 375-12,000 nM (Example 32); assay type: cell-based; settings: for Percent inhibition of Factor 11 mRNA at 375 nM / Percent inhibition of Factor 11 mRNA at 750 nM / IC50: electroporation; for Percent inhibition of Factor 11 mRNA at 375 nM / Percent inhibition of Factor 11 mRNA at 750 nM / Percent inhibition of Factor 11 mRNA at 1,500 nM / Percent inhibition of Factor 11 mRNA at 3,000 nM / Percent inhibition of Factor 11 mRNA at 6,000 nM / Percent inhibition of Factor 11 mRNA at 12,000 nM: approx. 16 hours, relative to untreated control cells; for Percent inhibition of Factor 11 mRNA at 1,500 nM: electroporation, 1,500 nM; for Percent inhibition of Factor 11 mRNA at 3,000 nM: electroporation, 3,000 nM; for Percent inhibition of Factor 11 mRNA at 6,000 nM: electroporation, 6,000 nM; for Percent inhibition of Factor 11 mRNA at 12,000 nM: electroporation, 12,000 nM; for IC50: Factor 11 mRNA expression
Description: These gapmers were tested at various doses in HepG2 cells. Cells were plated at a density of 20,000 cells per well and transfected using electroporation with 375 nM, 750 nM, 1,500 nM, 3,000 nM, 6,000 nM and 12,000 nM concentrations of antisense oligonucleotide, as specified in Table 47. After a treatment period of approximately 16 hours, RNA was isolated from the cells and Factor 11 mRNA levels were measured by quantitative real-time PCR. Human Factor 11 primer probe set RTS 2966 was used to measure mRNA levels. Factor 11 mRNA levels were adjusted according to total RNA content, as measured by RIBOGREEN. Results are presented as percent inhibition of Factor 11, relative to untreated control cells.
ISIS 416850, ISIS 416858, ISIS 445522, and ISIS 445531 (see Table 45 above) were re-tested in vitro along with the microwalk gapmers under the same conditions described above.
The first two listed gapmers in Table 47 are the original gapmers (ISIS 416850 and ISIS 416858) from which the remaining gapmers were designed via microwalk and are designated by an asterisk.

Factor 11 mRNA = Factor 11 mRNA in cynomolgus monkey liver, day 55 (Example 46); assay type: in vivo, cynomolgus monkeys; settings: 25 mg/kg subcutaneously, primer probe set LTS00301
Description: (§1) Groups, each consisting of two male and two female monkeys, were injected subcutaneously with 25 mg/kg of ISIS 416850, ISIS 449709, ISIS 445522, ISIS 449710, ISIS 449707, ISIS 449711, ISIS 449708, 416858, and ISIS 445531. Antisense oligonucleotide was administered to the monkeys at 25 mg/kg three times per week for week 1 and 25 mg/kg twice per week for weeks 2 to 8. A control group, consisting of two male and two female monkeys was injected subcutaneously with PBS according to the same dosing regimen. Body weights were taken 14 days and 7 days before the start of treatment and were then measured weekly throughout the treatment period. Blood samples were collected 14 days and 5 days before the start of treatment and subsequently several times during the dosing regimen for PT and aPTT measurements, and measurement of various hematologic factors. On day 55, the monkeys were euthanized by exsanguination while under deep anesthesia, and organs harvested for further analysis.
On day 55, RNA was extracted from liver tissue for real-time PCR analysis of Factor 11 using primer probe set LTS00301. Results are presented as percent inhibition of Factor 11, relative to PBS control.

Factor 11 protein = Factor 11 protein in monkey plasma by sandwich ELISA (Example 46); assay type: in vivo, cynomolgus monkeys; settings: 25 mg/kg subcutaneously
Description: as §1
Plasma samples from all monkey groups taken on different days were analyzed by a sandwich-style ELISA assay (Affinity Biologicals Inc.) using an affinity-purified polyclonal anti-Factor 11 antibody as the capture antibody and a peroxidase-conjugated polyclonal anti-Factor 11 antibody as the detecting antibody. Monkey plasma was diluted 1:50 for the assay. Peroxidase activity was expressed by incubation with the substrate o-phenylenediamine. The color produced was quantified using a microplate reader at 490 nm and was considered to be proportional to the concentration of Factor 11 in the samples.
The results are presented in Table 147, expressed as percentage reduction relative to that of the PBS control.

[1] = Viscosity of ISIS antisense oligonucleotides, micro-viscometer at 25 °C (Example 47); assay type: physicochemical; settings: for Concentration: concentration of the viscosity sample, UV reading at 260 nM at 85° C.; for Viscosity: in water, micro-viscometer at 25° C., at the concentration of the same line
Description: The viscosity of antisense oligonucleotides targeting human Factor 11 was measured with the aim of screening out antisense oligonucleotides which have a viscosity more than 40 cP at a concentration of 165-185 mg/mL.
ISIS oligonucleotides (32-35 mg) were weighed into a glass vial, 120 μL of water was added and the antisense oligonucleotide was dissolved into solution by heating the vial at 50° C. Part of (75 μL) the pre-heated sample was pipetted to a micro-viscometer (Cambridge). The temperature of the micro-viscometter was set to 25° C. and the viscosity of the sample was measured. Another part (20 μL) of the pre-heated sample was pipetted into 10 mL of water for UV reading at 260 nM at 85° C. (Cary UV instrument).

For “449709 (antisense eG*e[5mC]*eA*e[5mC]*dA*dG*dT*dT*dT*d[5mC]*dT*dG*dG*d[5mC]*eA*eG*eG*e[5mC]) [compound 449709]”, the “Percent inhibition of Factor 11 mRNA at 375 nM” value (human Factor 11 mRNA) was 52%, the “Percent inhibition of Factor 11 mRNA at 750 nM” value (human Factor 11 mRNA) was 71% and the “Percent inhibition of Factor 11 mRNA at 1,500 nM” value (human Factor 11 mRNA) was 80%. The “Percent inhibition of Factor 11 mRNA at 3,000 nM” value (human Factor 11 mRNA) was 87%, the “Percent inhibition of Factor 11 mRNA at 6,000 nM” value (human Factor 11 mRNA) was 92% and the “Percent inhibition of Factor 11 mRNA at 12,000 nM” value (human Factor 11 mRNA) was 95%. The IC50 (human Factor 11 mRNA) was 0.38 µM, the “% inhibition of Factor 11 mRNA in liver relative to the PBS control” value (Factor 11 mRNA) was 69% and the “Inhibition of Factor 11 protein relative to the PBS control (percentage reduction)” value (Factor 11 protein; Day 10, plasma) was 27%. For the same substance, the “Inhibition of Factor 11 protein relative to the PBS control (percentage reduction)” value (Factor 11 protein; Day 17, plasma) was 35%, the “Inhibition of Factor 11 protein relative to the PBS control (percentage reduction)” value (Factor 11 protein; Day 24, plasma) was 44% and the “Inhibition of Factor 11 protein relative to the PBS control (percentage reduction)” value (Factor 11 protein; Day 31, plasma) was 45%. For the same substance, the “Inhibition of Factor 11 protein relative to the PBS control (percentage reduction)” value (Factor 11 protein; Day 38, plasma) was 46%, the “Inhibition of Factor 11 protein relative to the PBS control (percentage reduction)” value (Factor 11 protein; Day 45, plasma) was 48% and the “Inhibition of Factor 11 protein relative to the PBS control (percentage reduction)” value (Factor 11 protein; Day 52, plasma) was 47%. For the same substance, the “Inhibition of Factor 11 protein relative to the PBS control (percentage reduction)” value (Factor 11 protein; Day 55, plasma) was 50%, the “Inhibition of Factor 11 protein relative to the PBS control (percentage reduction)” value (Factor 11 protein; Day −5, plasma) was 0% and the “Inhibition of Factor 11 protein relative to the PBS control (percentage reduction)” value (Factor 11 protein; Day −14, plasma) was 1%. For the same substance, the Concentration [1] was 171 mg/mL and the Viscosity [1] was 65 cP.
For “449708 (antisense eA*e[5mC]*eA*dG*dT*dT*dT*d[5mC]*dT*dG*dG*e[5mC]*eA*eG) [compound 449708]”, the “Percent inhibition of Factor 11 mRNA at 375 nM” value (human Factor 11 mRNA) was 0%, the “Percent inhibition of Factor 11 mRNA at 750 nM” value (human Factor 11 mRNA) was 0% and the “Percent inhibition of Factor 11 mRNA at 1,500 nM” value (human Factor 11 mRNA) was 22%. For the same substance, the “Percent inhibition of Factor 11 mRNA at 3,000 nM” value (human Factor 11 mRNA) was 33%, the “Percent inhibition of Factor 11 mRNA at 6,000 nM” value (human Factor 11 mRNA) was 61% and the “Percent inhibition of Factor 11 mRNA at 12,000 nM” value (human Factor 11 mRNA) was 85%. The IC50 (human Factor 11 mRNA) was 4.46 µM, the “% inhibition of Factor 11 mRNA in liver relative to the PBS control” value (Factor 11 mRNA) was 46% and the “Inhibition of Factor 11 protein relative to the PBS control (percentage reduction)” value (Factor 11 protein; Day 10, plasma) was 7%. For the same substance, the “Inhibition of Factor 11 protein relative to the PBS control (percentage reduction)” value (Factor 11 protein; Day 17, plasma) was 15%, the “Inhibition of Factor 11 protein relative to the PBS control (percentage reduction)” value (Factor 11 protein; Day 24, plasma) was 3% and the “Inhibition of Factor 11 protein relative to the PBS control (percentage reduction)” value (Factor 11 protein; Day 31, plasma) was 14%. The “Inhibition of Factor 11 protein relative to the PBS control (percentage reduction)” value (Factor 11 protein; Day 38, plasma) was 9%, the “Inhibition of Factor 11 protein relative to the PBS control (percentage reduction)” value (Factor 11 protein; Day 45, plasma) was 2% and the “Inhibition of Factor 11 protein relative to the PBS control (percentage reduction)” value (Factor 11 protein; Day 52, plasma) was 6%. For the same substance, the “Inhibition of Factor 11 protein relative to the PBS control (percentage reduction)” value (Factor 11 protein; Day 55, plasma) was 6%, the “Inhibition of Factor 11 protein relative to the PBS control (percentage reduction)” value (Factor 11 protein; Day −5, plasma) was 0% and the “Inhibition of Factor 11 protein relative to the PBS control (percentage reduction)” value (Factor 11 protein; Day −14, plasma) was 1%. It also gave a Concentration [1] of 188 mg/mL and a Viscosity [1] of 9 cP.
